Measured values reported in article PMC10518255, “A first-in-class pan-lysyl oxidase inhibitor impairs stromal remodeling and enhances gemcitabine response and survival in pancreatic cancer” (Nature Cancer, 2023).
Several values for one entry are separate records, joined by “and”; a condition that tells them apart may be missing. Identical values can stand only once.

Experiments:
Recombinant LOXL-3 = target: T1, Recombinant LOXL-3 (Homo sapiens, UniProt P58215); test: Lysyl oxidase enzymatic activity, fluorescence-based assay, IC50; assay type: biochemical; settings: replicates
T1 sequence (P58215 26-753): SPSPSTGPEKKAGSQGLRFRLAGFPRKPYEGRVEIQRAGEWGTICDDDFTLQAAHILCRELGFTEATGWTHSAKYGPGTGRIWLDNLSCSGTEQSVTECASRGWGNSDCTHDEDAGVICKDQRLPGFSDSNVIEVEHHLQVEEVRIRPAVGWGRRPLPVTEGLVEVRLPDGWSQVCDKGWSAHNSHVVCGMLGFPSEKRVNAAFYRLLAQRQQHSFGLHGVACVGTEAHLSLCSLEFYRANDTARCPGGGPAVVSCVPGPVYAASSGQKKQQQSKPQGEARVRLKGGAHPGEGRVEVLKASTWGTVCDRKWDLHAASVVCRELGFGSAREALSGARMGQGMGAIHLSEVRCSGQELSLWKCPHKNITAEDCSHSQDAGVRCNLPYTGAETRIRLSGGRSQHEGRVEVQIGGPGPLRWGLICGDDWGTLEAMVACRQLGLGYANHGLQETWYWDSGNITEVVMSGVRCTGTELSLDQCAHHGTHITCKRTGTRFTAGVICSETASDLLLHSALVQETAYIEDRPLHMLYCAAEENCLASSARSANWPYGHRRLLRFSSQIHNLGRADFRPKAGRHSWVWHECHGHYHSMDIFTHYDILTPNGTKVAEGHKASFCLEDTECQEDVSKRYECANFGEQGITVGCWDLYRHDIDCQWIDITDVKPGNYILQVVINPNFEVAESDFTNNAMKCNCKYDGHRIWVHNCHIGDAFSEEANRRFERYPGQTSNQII
Excerpt: (§1) Data are presented as mean ± s.d. […] Data presented as mean ± s.d. […] Source data TEXT PRINTED IN THE PICTURE: (b) PXS-5505: Recombinant DAO IC50 (nM): >30,000; Recombinant SSAO/VAP1 IC50 (nM): >30,000; Recombinant MAO-A IC50 (nM): >30,000; Recombinant MAO-B IC50 (nM): >30,000 | (f) PXS-5505: Fibroblast LOX IC50 (nM): 4,930; Recombinant LOXL-1 IC50 (nM): 1,590; Recombinant LOXL-2 IC50 (nM): 570; Recombinant LOXL-3 IC50 (nM): 1,800; Recombinant LOXL-4 IC50 (nM): 190
(§2) In characterizing PXS-5505, the half-maximum inhibitory concentration (IC50) values for each of the lysyl oxidase family members were determined by measuring enzymatic activity using a fluorescence-based assay.
(§3) Data presented as mean values +/− SD. f. […] Data presented as mean values +/− SD. […] Data presented as mean values +/− SD. […] Data presented as mean values +/− SD. Ordinary one-way ANOVA for multiple comparison test performed. Source data

Fibroblast LOX = target: T2, Fibroblast LOX (Homo sapiens, UniProt P28300); test: as above; assay type: biochemical
T2 construct: endogenous in cells
T2 sequence (P28300 169-417): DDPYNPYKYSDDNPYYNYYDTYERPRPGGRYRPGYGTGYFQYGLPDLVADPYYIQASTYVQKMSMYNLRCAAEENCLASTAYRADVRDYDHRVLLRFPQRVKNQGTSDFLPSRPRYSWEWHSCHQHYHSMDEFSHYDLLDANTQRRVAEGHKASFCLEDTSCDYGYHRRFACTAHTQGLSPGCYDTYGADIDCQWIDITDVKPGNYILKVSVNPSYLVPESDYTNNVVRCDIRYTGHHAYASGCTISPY
Excerpt: as §1, §2, §3

`Cl.Cl.NC/C=C(\F)CS(=O)(=O)c1cccc2cccnc12.O` [PXS-5505, (Z)-3-fluoro-4-(quinolin-8-ylsulfonyl)but-2-en-1-amine dihydrochloride monohydrate] was tested, and the “LOXL3 activity, IC50 determination curve” value (Recombinant LOXL-3; log(Concentration) -8.33985, 0.004572 µM) was 101.158 and 89.5879, the “LOXL3 activity, IC50 determination curve” value (Recombinant LOXL-3; log(Concentration) -8.81697, 0.001524 µM) was 100.452 and 87.3896 and the “LOXL3 activity, IC50 determination curve” value (Recombinant LOXL-3; log(Concentration) -9.29409, 0.000508 µM) was 100.732 and 88.8381. The activity at 10 µM (Recombinant LOXL-3; read-out: LOXL3 activity, IC50 determination curve, log(Concentration) -5) was 7.74%, the activity at 3.333 µM (Recombinant LOXL-3; read-out: LOXL3 activity, IC50 determination curve, log(Concentration) -5.47712) was 30.5% and the activity at 1.111 µM (Recombinant LOXL-3; read-out: LOXL3 activity, IC50 determination curve, log(Concentration) -5.95424) was 62.6%. The activity at 0.3704 µM (Recombinant LOXL-3; read-out: LOXL3 activity, IC50 determination curve, log(Concentration) -6.43136) was 82.5%, the activity at 0.1235 µM (Recombinant LOXL-3; read-out: LOXL3 activity, IC50 determination curve, log(Concentration) -6.90849) was 98.2% and the activity at 0.04115 µM (Recombinant LOXL-3; read-out: LOXL3 activity, IC50 determination curve, log(Concentration) -7.38561) was 96.9%. The activity at 0.01372 µM (Recombinant LOXL-3; read-out: LOXL3 activity, IC50 determination curve, log(Concentration) -7.86273) was 96.8%, the activity at 0.004572 µM (Recombinant LOXL-3; read-out: LOXL3 activity, IC50 determination curve, log(Concentration) -8.33985) was 99.1% and the activity at 0.001524 µM (Recombinant LOXL-3; read-out: LOXL3 activity, IC50 determination curve, log(Concentration) -8.81697) was 100%. The activity at 0.000508 µM (Recombinant LOXL-3; read-out: LOXL3 activity, IC50 determination curve, log(Concentration) -9.29409) was 99.7%, the IC50 (Fibroblast LOX) was 4.93 µM and the “LOX activity, IC50 determination curve” value (Fibroblast LOX; log(Concentration) -4.52288, replicates, 30 µM) was -1.8303 and 0.6579 and 0.3247. For the same compound, the “LOX activity, IC50 determination curve” value (Fibroblast LOX; log(Concentration) -5, replicates, 10 µM) was 3.883 and 10.1684 and 20.9265 and 5.02 and 4.758 and 6.391 and 6.186 and 6.029 and 20.5369 and 17.2584 and 29.8226 and 3.623 and 26.5163 and 8.055 and 5.279 and 6.036 and 3.683 and 8.994 and 2.62 and 5.888, the “LOX activity, IC50 determination curve” value (Fibroblast LOX; log(Concentration) -5.47712, replicates, 3.333 µM) was 26.3616 and 38.5547 and 37.4589 and 30.4803 and 26.5908 and 26.0097 and 25.4086 and 23.2841 and 47.0211 and 41.5569 and 54.9662 and 30.9927 and 55.9602 and 33.6452 and 26.0055 and 25.2076 and 21.7888 and 33.3569 and 26.6311 and 45.3445 and the “LOX activity, IC50 determination curve” value (Fibroblast LOX; log(Concentration) -5.95424, replicates, 1.111 µM) was 65.9487 and 69.3911 and 60.7313 and 65.7321 and 64.7348 and 60.684 and 73.4741 and 69.7585 and 72.3228 and 61.8434 and 76.5191 and 70.4394 and 64.4999 and 59.1047 and 54.3417 and 66.355 and 58.9798 and 55.4122. For the same compound, the “LOX activity, IC50 determination curve” value (Fibroblast LOX; log(Concentration) -6.43136, replicates, 0.3704 µM) was 87.2177 and 88.3395 and 79.2811 and 66.9609 and 65.4146 and 85.3577 and 83.5816 and 83.3016 and 85.8139 and 85.7077 and 63.7427 and 87.2402 and 81.0139 and 93.5693 and 81.2357 and 80.2494 and 78.0142 and 85.6866 and 82.1322 and 88.2018, the “LOX activity, IC50 determination curve” value (Fibroblast LOX; log(Concentration) -6.90849, replicates, 0.1235 µM) was 96.5523 and 90.6919 and 85.8494 and 82.293 and 94.8665 and 94.3951 and 93.9784 and 95.943 and 87.9121 and 85.7594 and 95.8669 and 88.1459 and 102.086 and 95.1473 and 93.948 and 87.9189 and 98.6889 and 90.9023 and 91.7994 and the activity at 0.1235 µM (Fibroblast LOX; read-out: LOX activity, IC50 determination curve, log(Concentration) -6.90849, replicates) was 99.8%. It also gave an activity at 0.01372 µM (Fibroblast LOX; read-out: LOX activity, IC50 determination curve, log(Concentration) -7.86273, replicates) of 104%, an activity at 0.004572 µM (Fibroblast LOX; read-out: LOX activity, IC50 determination curve, log(Concentration) -8.33985, replicates) of 102% and an activity at 0.001524 µM (Fibroblast LOX; read-out: LOX activity, IC50 determination curve, log(Concentration) -8.81697, replicates) of 108%. The activity at 0.000508 µM (Fibroblast LOX; read-out: LOX activity, IC50 determination curve, log(Concentration) -9.29409, replicates) was 105%.
